Data from US20100311714A1, “1H-IMIDAZO[4,5-c]QUINOLINONE COMPOUNDS” (priority 2009, published 2010).
≈ marks a conversion by molar mass, not a printed value. Where two headings read alike, the source gives them in different places.

How the values were obtained:
[1] = biological target: T1, PI3K alfa (Homo sapiens, UniProt P42336); assay: PI3K alpha kinase assay (Kinase-Glo luminescence); type: biochemical
T1 construct: His tag (C); made in house; host or cells: baculovirus BV1075; Tn5 (Trichoplusia ni) or TiniPro insect cells
How it was run: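 Kinase-Glo luminescence read of ATP remaining after PI3Kα (10 nM) phosphorylates 10 μg/mL bovine liver phosphatidylinositol with 1 μM ATP, pH 7.5 TRIS, 3 mM MgCl2, 0.05% CHAPS; 60 min at room temperature. IC50 from 4-parameter logistic fit over 8 concentrations.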

[2] = High-throughput equilibrium solubility at pH 6.8; type: physicochemical; conditions: pH 6.8, aqueous buffer, thermodynamic from solid; read-out: HT-Eq Sol/pH 6.8
How it was run: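 Solubility was measured at pH 6.8 following the cited Zhou et al. (2007) procedure.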

[3] = biological target: T2, PI3K beta (Homo sapiens, UniProt P42338); assay: PI3K beta kinase assay (Kinase-Glo luminescence); type: biochemical
T2 construct: for the full-length p110-b subunit are generated and fused by overlapping PCR; His tag (C); made in house; host or cells: baculovirus BV949; Tn5 (Trichoplusia ni) or TiniPro insect cells
How it was run: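 PI3Kβ construct BV949 (p85 iSH2–p110β full-length, C-His), 25 nM, reacted with 1 μM ATP and 10 μg/mL phosphatidylinositol in Tris pH 7.5, MgCl2, NaCl, CHAPS, DTT buffer, 60 min at room temperature. Remaining ATP by Kinase-Glo luminescence; IC50 from 4-parameter logistic fit of 8 concentrations.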

T1 sequence (P42336 with tags, fused parts or gaps limits assumed): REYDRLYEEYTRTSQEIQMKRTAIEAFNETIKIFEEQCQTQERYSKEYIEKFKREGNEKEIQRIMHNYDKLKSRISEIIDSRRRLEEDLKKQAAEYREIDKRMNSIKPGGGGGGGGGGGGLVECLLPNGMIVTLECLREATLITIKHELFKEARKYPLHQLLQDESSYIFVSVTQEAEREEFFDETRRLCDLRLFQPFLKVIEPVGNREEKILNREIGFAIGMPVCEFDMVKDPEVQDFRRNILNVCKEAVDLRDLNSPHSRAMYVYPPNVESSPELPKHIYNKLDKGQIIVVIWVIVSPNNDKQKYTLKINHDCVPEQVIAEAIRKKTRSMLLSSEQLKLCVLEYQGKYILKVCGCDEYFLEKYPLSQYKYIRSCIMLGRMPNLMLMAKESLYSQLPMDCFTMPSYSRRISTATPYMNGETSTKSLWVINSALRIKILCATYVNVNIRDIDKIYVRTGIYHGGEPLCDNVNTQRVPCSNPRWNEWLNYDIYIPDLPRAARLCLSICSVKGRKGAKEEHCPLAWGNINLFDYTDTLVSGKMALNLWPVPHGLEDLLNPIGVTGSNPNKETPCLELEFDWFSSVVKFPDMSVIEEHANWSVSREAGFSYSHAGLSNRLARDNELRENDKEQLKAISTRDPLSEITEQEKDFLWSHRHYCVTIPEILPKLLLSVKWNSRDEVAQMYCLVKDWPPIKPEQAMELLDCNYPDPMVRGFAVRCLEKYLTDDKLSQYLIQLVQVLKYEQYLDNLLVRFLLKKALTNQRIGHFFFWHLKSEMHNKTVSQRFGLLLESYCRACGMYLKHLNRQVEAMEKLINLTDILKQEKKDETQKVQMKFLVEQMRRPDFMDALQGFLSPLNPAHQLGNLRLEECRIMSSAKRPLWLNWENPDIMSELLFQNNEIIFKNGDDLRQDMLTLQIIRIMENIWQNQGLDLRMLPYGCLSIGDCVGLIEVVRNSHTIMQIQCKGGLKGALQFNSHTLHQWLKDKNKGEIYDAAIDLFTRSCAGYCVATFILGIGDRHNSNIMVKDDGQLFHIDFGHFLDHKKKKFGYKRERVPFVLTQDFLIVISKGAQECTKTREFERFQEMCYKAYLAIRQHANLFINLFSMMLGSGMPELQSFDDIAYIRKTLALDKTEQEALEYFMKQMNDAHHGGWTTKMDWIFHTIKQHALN
T2 sequence (P42338 with tags, fused parts or gaps limits assumed): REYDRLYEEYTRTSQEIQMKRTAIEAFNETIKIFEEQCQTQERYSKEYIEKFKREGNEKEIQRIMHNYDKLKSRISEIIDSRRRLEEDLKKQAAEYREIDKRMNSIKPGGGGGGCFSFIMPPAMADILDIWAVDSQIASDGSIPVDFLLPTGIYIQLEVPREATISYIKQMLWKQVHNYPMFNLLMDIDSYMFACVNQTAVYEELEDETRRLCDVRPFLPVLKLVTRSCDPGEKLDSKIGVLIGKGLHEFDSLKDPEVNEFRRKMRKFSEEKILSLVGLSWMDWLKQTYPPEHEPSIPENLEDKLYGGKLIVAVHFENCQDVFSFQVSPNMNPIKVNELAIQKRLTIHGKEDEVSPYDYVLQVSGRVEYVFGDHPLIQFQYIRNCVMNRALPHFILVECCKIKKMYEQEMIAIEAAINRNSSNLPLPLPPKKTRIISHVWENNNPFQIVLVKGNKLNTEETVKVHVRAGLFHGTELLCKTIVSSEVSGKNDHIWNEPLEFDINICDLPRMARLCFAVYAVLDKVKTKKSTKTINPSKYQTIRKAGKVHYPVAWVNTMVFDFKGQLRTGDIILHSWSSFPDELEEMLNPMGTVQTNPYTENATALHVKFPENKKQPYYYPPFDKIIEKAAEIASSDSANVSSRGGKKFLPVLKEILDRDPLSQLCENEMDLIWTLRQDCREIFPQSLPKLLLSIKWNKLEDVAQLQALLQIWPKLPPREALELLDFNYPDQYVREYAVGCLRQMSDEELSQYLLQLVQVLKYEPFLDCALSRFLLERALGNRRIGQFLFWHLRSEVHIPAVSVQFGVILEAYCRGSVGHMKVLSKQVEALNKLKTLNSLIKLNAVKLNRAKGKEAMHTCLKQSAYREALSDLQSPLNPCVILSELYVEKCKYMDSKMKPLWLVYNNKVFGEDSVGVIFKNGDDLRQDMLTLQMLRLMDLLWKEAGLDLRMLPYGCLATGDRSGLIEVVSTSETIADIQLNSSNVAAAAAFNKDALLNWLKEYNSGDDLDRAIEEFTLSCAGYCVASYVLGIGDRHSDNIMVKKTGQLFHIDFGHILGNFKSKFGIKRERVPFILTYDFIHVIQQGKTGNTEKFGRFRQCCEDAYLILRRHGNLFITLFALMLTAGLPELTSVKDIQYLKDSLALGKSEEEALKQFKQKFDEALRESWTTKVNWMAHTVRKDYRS

SMILES	IC50 ([1]; read-out: PI3Kalfa/IC50) [µM]	solubility thermodynamic [2] [mg/mL]	IC50 ([3]; read-out: PI3Kbeta/IC50) [µM]	IC50 ([1]; read-out: EPK_PI3Kalfa/IC50) [µM]	IC50 ([3]; read-out: EPK_PI3Kbeta/IC50) [µM]
COc1ccc(-c2ccc3ncc4c(c3c2)n(-c2cnccc2C)c(=O)n4C)cn1 [Example 4.3, 8-(6-Methoxy-pyridin-3-yl)-3-methyl-1-(4-methyl-pyridin-3-yl)-1,3-dihydro-imidazo[4,5-c]quinolin-2-one]	0.073	0.129 (≈ 325 µM)	0.601		
Cc1ncccc1-n1c(=O)n(C)c2cnc3ccc(-c4ccc(N)nc4)cc3c21 [Example 2.7, 8-(6-Amino-pyridin-3-yl)-3-methyl-1-(2-methyl-pyridin-3-yl)-1,3-dihydro-imidazo[4,5-c]quinolin-2-one]	0.018	0.017 (≈ 44.5 µM)	0.133		
CCOc1ccc(-c2ccc3ncc4c(c3c2)n(-c2cccnc2F)c(=O)n4C)cn1 [Example 6.1, 8-(6-Ethoxy-pyridin-3-yl)-1-(2-fluoro-pyridin-3-yl)-3-methyl-1,3-dihydro-imidazo[4,5-c]quinolin-2-one]	0.021	0.002 (≈ 4.81 µM)	0.223		
CCOc1cc(-c2ccc3ncc4c(c3c2)n(-c2ccc(F)nc2C)c(=O)n4C)cnc1COC [Example 7.5, 8-(5-Ethoxy-6-methoxymethyl-pyridin-3-yl)-1-(6-fluoro-2-methyl-pyridin-3-yl)-3-methyl-1,3-dihydro-imidazo[4,5-c]quinolin-2-one]		0.094 (≈ 199 µM)		0.094	0.152
COc1ccc(-c2ccc3ncc4c(c3c2)n(-c2cccnc2C)c(=O)n4C)cc1OC [Example 2.9, 8-(3,4-Dimethoxy-phenyl)-3-methyl-1-(2-methyl-pyridin-3-yl)-1,3-dihydro-imidazo[4,5-c]quinolin-2-one]	0.012	0.012 (≈ 28.1 µM)	0.077		
CCOc1cc(-c2ccc3ncc4c(c3c2)n(-c2ccc(N3CCC3)nc2C)c(=O)n4C)cnc1COC [Example 23.5, 1-(6-Azetidin-1-yl-2-methyl-pyridin-3-yl)-8-(5-ethoxy-6-methoxymethyl-pyridin-3-yl)-3-methyl-1,3-dihydro-imidazo[4,5-c]quinolin-2-one]		0.069 (≈ 135 µM)		0.021	0.208
Cc1ncccc1-n1c(=O)n(C)c2cnc3ccc(-c4cncc(N)c4)cc3c21 [Example 2.25, 8-(5-Amino-pyridin-3-yl)-3-methyl-1-(2-methyl-pyridin-3-yl)-1,3-dihydro-imidazo[4,5-c]quinolin-2-one]		0.228 (≈ 596 µM)		0.064	0.143
Cc1nc(F)ccc1-n1c(=O)n(C)c2cnc3ccc(-c4cncc(C(C)(C)O)c4)cc3c21 [Example 7.8, 1-(6-Fluoro-2-methyl-pyridin-3-yl)-8-[5-(1-hydroxy-1-methyl-ethyl)-pyridin-3-yl]-3-methyl-1,3-dihydro-imidazo[4,5-c]quinolin-2-one]		0.372 (≈ 839 µM)		0.021	0.045
Cn1c(=O)n(-c2cccnc2)c2c3cc(-c4ccc(CO)nc4)ccc3ncc21 [Example 5.1, 8-(6-Hydroxymethyl-pyridin-3-yl)-3-methyl-1-pyridin-3-yl-1,3-dihydro-imidazo[4,5-c]quinolin-2-one]	0.074	0.015 (≈ 39.1 µM)	0.801		
COc1ncccc1-n1c(=O)n(C)c2cnc3ccc(-c4ccc(C(N)=O)cc4)cc3c21 [Example 1.6, 4-[1-(2-Methoxy-pyridin-3-yl)-3-methyl-2-oxo-2,3-dihydro-1H-imidazo[4,5-c]quinolin-8-yl]-benzamide]	0.017	0.002 (≈ 4.7 µM)	0.491		
Cc1ncccc1-n1c(=O)n(C)c2cnc3ccc(-c4cnc(N(C)C)nc4)cc3c21 [Example 2.15, 8-(2-Dimethylamino-pyrimidin-5-yl)-3-methyl-1-(2-methyl-pyridin-3-yl)-1,3-dihydro-imidazo[4,5-c]quinolin-2-one]	0.035	0.011 (≈ 26.7 µM)	0.36		
Cc1ncccc1-n1c(=O)n(C)c2cnc3ccc(-c4cnc(N)c(C(F)(F)F)c4)cc3c21 [Example 2.11, 8-(6-Amino-5-trifluoromethyl-pyridin-3-yl)-3-methyl-1-(2-methyl-pyridin-3-yl)-1,3-dihydro-imidazo[4,5-c]quinolin-2-one]	0.007	0.013 (≈ 28.9 µM)	0.014		
Cc1nc(N2CCN(C)C(=O)C2)ccc1-n1c(=O)n(C)c2cnc3ccc(-c4cnc(N)c(C(F)(F)F)c4)cc3c21 [Example 21.1, 8-(6-Amino-5-trifluoromethyl-pyridin-3-yl)-3-methyl-1-[2-methyl-6-(4-methyl-3-oxo-piperazin-1-yl)-pyridin-3-yl]-1,3-dihydro-imidazo[4,5-c]quinolin-2-one]		0.022 (≈ 39.1 µM)		0.005	0.009

The next lines start with the values.

IC50 ([1]; read-out: PI3Kalfa/IC50) [µM]	solubility thermodynamic [2] [mg/mL]	IC50 ([3]; read-out: PI3Kbeta/IC50) [µM]	IC50 ([1]; read-out: EPK_PI3Kalfa/IC50) [µM]	IC50 ([3]; read-out: EPK_PI3Kbeta/IC50) [µM]	SMILES
	0.003 (≈ 5.9 µM)		0.006	0.009	Cc1nc(C(C)(C)O)ccc1-n1c(=O)n(C)c2cnc3ccc(-c4cnc(N)c(C(F)(F)F)c4)cc3c21 [Example 31.5, 8-(6-Amino-5-trifluoromethyl-pyridin-3-yl)-1-[6-(1-hydroxy-1-methyl-ethyl)-2-methyl-pyridin-3-yl]-3-methyl-1,3-dihydro-imidazo[4,5-c]quinolin-2-one]
	0.007 (≈ 14 µM)		0.044	1.07	CNc1ncc(-c2ccc3ncc4c(c3c2)n(-c2ccc(N3CC[C@H](O)C3)nc2C)c(=O)n4C)cc1F [Example 32.2, 8-(5-Fluoro-6-methylamino-pyridin-3-yl)-1-[6-((S)-3-hydroxy-pyrrolidin-1-yl)-2-methyl-pyridin-3-yl]-3-methyl-1,3-dihydro-imidazo[4,5-c]quinolin-2-one]
	0.059 (≈ 121 µM)		0.049	1.01	CNc1ncc(-c2ccc3ncc4c(c3c2)n(-c2ccc(N3CC(F)(F)C3)nc2C)c(=O)n4C)cn1 [Example 24.1, 1-[6-(3,3-Difluoro-azetidin-1-yl)-2-methyl-pyridin-3-yl]-3-methyl-8-(2-methylamino-pyrimidin-5-yl)-1,3-dihydro-imidazo[4,5-c]quinolin-2-one]
	0.172 (≈ 311 µM)		0.0655	0.454	CCNc1ncc(-c2ccc3ncc4c(c3c2)n(-c2ccc(N3CC[C@@H](O)C3)nc2C)c(=O)n4C)cc1COCC [Example 34.4, 8-(5-Ethoxymethyl-6-ethylamino-pyridin-3-yl)-1-[6-((R)-3-hydroxy-pyrrolidin-1-yl)-2-methyl-pyridin-3-yl]-3-methyl-1,3-dihydro-imidazo[4,5-c]quinolin-2-one]
	0.005 (≈ 10.6 µM)		0.084	0.342	CCOc1ccc(-c2ccc3ncc4c(c3c2)n(-c2ccc(C(C)(C)O)nc2C)c(=O)n4C)cn1 [Example 31.4, 8-(6-Ethoxy-pyridin-3-yl)-1-[6-(1-hydroxy-1-methyl-ethyl)-2-methyl-pyridin-3-yl]-3-methyl-1,3-dihydro-imidazo[4,5-c]quinolin-2-one]
	0.023 (≈ 40.8 µM)		0.028	0.134	CCNc1ncc(-c2ccc3ncc4c(c3c2)n(-c2ccc(N3CC[C@@H](O)C3)nc2C)c(=O)n4C)cc1C(F)(F)F [Example 34.2, 8-(6-Ethylamino-5-trifluoromethyl-pyridin-3-yl)-1-[6-((R)-3-hydroxy-pyrrolidin-1-yl)-2-methyl-pyridin-3-yl]-3-methyl-1,3-dihydro-imidazo[4,5-c]quinolin-2-one]
	0.256 (≈ 513 µM)		0.031	0.277	COc1cc(-c2ccc3ncc4c(c3c2)n(-c2ccc(N3CC(O)C3)nc2C)c(=O)n4C)cnc1CO [Example 29.5, 1-[6-(3-Hydroxy-azetidin-1-yl)-2-methyl-pyridin-3-yl]-8-(6-hydroxymethyl-5-methoxy-pyridin-3-yl)-3-methyl-1,3-dihydro-imidazo[4,5-c]quinolin-2-one]
	0.064 (≈ 133 µM)		0.017	0.103	CNc1ncc(-c2ccc3ncc4c(c3c2)n(-c2ccc(N3CC[C@H](O)C3)nc2C)c(=O)n4C)cn1 [Example 32.1, 1-[6-((S)-3-Hydroxy-pyrrolidin-1-yl)-2-methyl-pyridin-3-yl]-3-methyl-8-(2-methylamino-pyrimidin-5-yl)-1,3-dihydro-imidazo[4,5-c]quinolin-2-one]
	0.057 (≈ 115 µM)		0.014	0.036	CCNc1cc(-c2ccc3ncc4c(c3c2)n(-c2ccc(N3CCC3)nc2C)c(=O)n4C)cnc1CO [Example 23.8, 1-(6-Azetidin-1-yl-2-methyl-pyridin-3-yl)-8-(5-ethylamino-6-hydroxymethyl-pyridin-3-yl)-3-methyl-1,3-dihydro-imidazo[4,5-c]quinolin-2-one]
	0.12 (≈ 235 µM)		0.071	0.216	Cc1nc(N2CC[C@H](O)C2)ccc1-n1c(=O)n(C)c2cnc3ccc(-c4cncc(OC(C)C)c4)cc3c21 [Example 32.8, 1-[6-((S)-3-Hydroxy-pyrrolidin-1-yl)-2-methyl-pyridin-3-yl]-8-(5-isopropoxy-pyridin-3-yl)-3-methyl-1,3-dihydro-imidazo[4,5-c]quinolin-2-one]
